According to patent publication US20230167120A1, “ARYL-FUSED ISOSELENAZOLE COMPOUND CONTAINING TETRAZINE SUBSTITUENT, SYNTHESIS METHOD THEREFOR, AND USE THEREOF” (KEAISE MEDICINE WUHAN CORP., priority 2020, published 2023):

How the values were obtained:
[1] = tested on: U251MG human glioma cells; test: In-vitro anti-cancer activity screening, SRB method, U251MG; format: cell-based; conditions: U-251
Protocol: (§1) Referring to the method of example 9, two tumor cell lines, U251MG and U251TR human glioma cells, were selected, and temozolomide and the compounds of the present disclosure were subjected to in-vitro anti-cancer activity screening using the SRB method.

[2] = tested on: human hepatoma cells (SMMC-7721); test: In-vitro growth inhibition, MTT method, SMMC-7721; format: cell-based; conditions: 48 h
Protocol: (§2) The in-vitro growth inhibitory activity of compounds 1 to 8 of the present disclosure against human glioma cells (U87 and LN229), human hepatoma cells (SMMC-7721) and human pancreatic carcinoma cells (Panc1) was studied adopting the MTT method.
(§3) U87, LN229, SMMC-7721 and Panc1 cells growing at log phase were separately inoculated into a 96-well plate at a density of 5×10^4 cells/mL, 180 μL/well. After the cells were attached to the wall, 20 μL of a drug liquid was added to each well, so that the final concentrations of the drug were 0 μM, 5 μM, 10 μM, 20 μM and 50 μM. After 48 h of action, a 5 mg/mL MTT solution (20 μL/well) was added. After the cells were incubated in a CO2 incubator for 3 to 4 h, the supernatant was carefully discarded. After the residual liquid was air-dried, acidified isopropanol (50 μL of concentrated hydrochloric acid dissolved in 500 mL of isopropanol) was added at […], and the plate was shaken on a shaker for 30 min. After the crystals were completely dissolved, absorbance OD values were measured by a microplate reader at 570 nm.
(§4) Cell viability %=(drug-treated cell OD−blank group OD)/(control cell OD−blank group OD)×100
(§5) Cell killing rate %=1−cell viability %

[3] = tested on: U251TR human glioma cells; test: In-vitro anti-cancer activity screening, SRB method, U251TR; format: cell-based; conditions: Glioma cell, drug-resistant strain
Protocol: as §1

human glioma cells (U87) = test: In-vitro growth inhibition, MTT method, U87; format: cell-based; conditions: Glioma cell, 48 h
Protocol: as §2
as §3, with “After the cells were attached to the wall, 20 μL of a drug liquid was added to each well, so that the final concentrations of the drug were 0 μM, 5 μM, 10 μM, 20 μM and 50 μM.” left out
as §4, §5

[4] = tested on: human pancreatic carcinoma cells (Panc1); test: In-vitro growth inhibition, MTT method, Panc1; format: cell-based; conditions: PANC-1, 48 h
Protocol: as §2, §3, §4, §5

[5] = tested on: human glioma cells (LN229); test: In-vitro growth inhibition, MTT method, LN229; format: cell-based; conditions: LN-229, 48 h
Protocol: as §2, §3, §4, §5

human glioma cell U87 [6] = test: Tumor volume inhibition rate, i.v. dosing; format: in vivo, Balb/c nude mice; conditions: Mus musculus, iv, TMZ 10 mg·kg^−1, i.v.
Protocol: In addition, low-dosage 0409 (20 mg·kg^−1, i.v.) and TMZ (10 mg·kg^−1, i.v.) were synchronously used for an assay to determine the volume tumor inhibition rate.

human glioma cell U87 [7] = test: Pharmacodynamic study in human glioma cell U87 subcutaneous model; format: in vivo, Balb/c nude mice; conditions: compounds 20 mg/Kg, q.d.×14 days
Text: The route of administration was intragastric administration ([…]., q.d.×14 days).

[8] = 240 h, Day 10, 20 mg·kg^−1, i.v.
[9] = 264 h, Day 11, 20 mg·kg^−1, i.v.
[10] = 288 h, Day 12, 20 mg·kg^−1, i.v.
[11] = 312 h, Day 13, 20 mg·kg^−1, i.v.
[12] = 336 h, Day 14, 20 mg·kg^−1, i.v.
[13] = 360 h, Day 15, 20 mg·kg^−1, i.v.
[14] = 384 h, Day 16, 20 mg·kg^−1, i.v.
[15] = 408 h, Day 17, 20 mg·kg^−1, i.v.
[16] = 432 h, Day 18, 20 mg·kg^−1, i.v.

| SMILES | IC50 [1] | IC50 [2] | IC50 [3] | IC50 (human glioma cells (U87)) | IC50 [4] | IC50 [5] | inhibition in vivo at 20 mg/kg (human glioma cell U87 [6]; [8]) | inhibition in vivo at 20 mg/kg (human glioma cell U87 [6]; [9]) | inhibition in vivo at 20 mg/kg (human glioma cell U87 [6]; [10]) | inhibition in vivo at 20 mg/kg (human glioma cell U87 [6]; [11]) | inhibition in vivo at 20 mg/kg (human glioma cell U87 [6]; [12]) | inhibition in vivo at 20 mg/kg (human glioma cell U87 [6]; [13]) | inhibition in vivo at 20 mg/kg (human glioma cell U87 [6]; [14]) | inhibition in vivo at 20 mg/kg (human glioma cell U87 [6]; [15]) | inhibition in vivo at 20 mg/kg (human glioma cell U87 [6]; [16]) | Tumor inhibition rate (human glioma cell U87 [7]; Day 1) | Tumor inhibition rate (human glioma cell U87 [7]; Day 4) | Tumor inhibition rate (human glioma cell U87 [7]; Day 7) | Tumor inhibition rate (human glioma cell U87 [7]; Day 10) | Tumor inhibition rate (human glioma cell U87 [7]; Day 14 (end of the experiment)) |
| --- | --- | --- | --- | --- | --- | --- | --- | --- | --- | --- | --- | --- | --- | --- | --- | --- | --- | --- | --- | --- |
| Cn1nnc2c(C(=O)NCCn3[se]c4ccc(F)cc4c3=O)ncn2c1=O [Compound 2, 3,4-dihydro-3-methyl-4-oxo-N-(3(2H)-oxo-5-fluoro-1,2-benzisoselenazol-2-yl)-ethyl-imidazo[5,1-d]-1,2,3,5-tetrazine-8-carboxamide] | 363 ± 21.4 µM | 16.4 ± 3.59 µM | > 500 µM | > 500 µM | 22.2 ± 8.78 µM | 52.2 ± 10.7 µM | 85% | 84.6% | 82.9% | 85.8% | 86.3% | 85.8% | 84.4% | 86.7% | 86.5% |  |  |  |  |  |
| Cn1nnc2c(C(=O)NCCn3[se]c4cc(F)ccc4c3=O)ncn2c1=O [Compound 3, 3,4-dihydro-3-methyl-4-oxo-N-(3(2H)-oxo-6-fluoro-1,2-benzisoselenazol-2-yl)-ethyl-imidazo[5,1-d]-1,2,3,5-tetrazine-8-carboxamide] | 15.4 ± 1.25 µM | 25.4 ± 7.19 µM | 35.5 ± 4.97 µM | 20.4 ± 7.19 µM | 7 ± 8.3 µM | 19 ± 1.3 µM | 57.9% | 67.1% | 68.4% | 58.8% | 72.3% | 72.7% | 78.6% | 74.8% | 73.8% | −9.91% | 47.90% | 87.76% | 91.47% | 88.01% |
| Cn1nnc2c(C(=O)NCCn3[se]c4ccc(Cl)cc4c3=O)ncn2c1=O [Compound 4, 3,4-dihydro-3-methyl-4-oxo-N-(3(2H)-oxo-5-chloro-1,2-benzisoselenazol-2-yl)-ethyl-imidazo[5,1-d]-1,2,3,5-tetrazine-8-carboxamide] | 126 ± 13.3 µM | 5.6 ± 5.84 µM | > 500 µM | 134 ± 15.8 µM | 24.2 ± 11.9 µM | 44.1 ± 6.09 µM | 73.5% | 75.2% | 74.5% | 68.8% | 74% | 80.6% | 84.3% | 84.7% | 81% |  |  |  |  |  |
